From patent US20090326008A1, “NF-kappa B Inhibitor” (priority 2006, published 2009)

Legend:
Assay type in all cases: cell-based, human
[1] = system: TNFα; test: Relative TNFα mRNA expression in IL-1β-stimulated MKN-45 cells (real-time PCR); details: IL-1β-stimulated DMSO-treated cells = 100%, ACTB reference
Experimental: (§1) RNA was extracted from the cells used in Example 2 according to the manufacturer's protocol for ABI Prism 6100 Nucleic Acid PrepStation (a nucleic acid isolation system, product of Applied Biosystems). More specifically, after removal of the culture supernatant and washing with 1 mL of PBS, 250 μL of Nucleic Acid Purification Lysis Solution (Part No. 4305895, Applied Biosystems) was added, and then agitated using a shaker for 2 to 3 minutes. The Lysis Solution containing the cell lysate was collected, and the total amount was transferred to the wells of RNA Purification Tray (Part No. 4305673, Applied Biosystems), which had been pre-wet with 40 μL of Nucleic Acid Purification Wash Solution I (Part No. 4305891, Applied Biosystems) beforehand. Aspiration (20% pressure) was performed for 2 minutes to adsorb the sample onto the RNA Purification Tray, followed by sequentially adding and aspirating (20% pressure, 2 min.) 500 μL of Wash Solution I, Nucleic Acid Purification (Part No. 4305891, Applied Biosystems), 400 μL of Wash Solution II, Nucleic Acid Purification (Part No. 4305890, product of Applied Biosystems), 400 μL of the Wash Solution II, and 300 μL of the Wash Solution II in that order. Aspiration (90% pressure) was performed for 5 minutes to remove the water content from the RNA Purification Trays. After addition of 150 μL of Elution Solution, Nucleic Acid Purification (Part No. 4305893, product of Applied Biosystems), aspiration (20% pressure) was performed for 2 minutes, while collecting the outflow. This was used as collected RNA solution.
(§2) Absorbance of the collected RNA solution at 260 nm was measured using a microplate spectrophotometer (“SpectraMax Plus”, product of Molecular Devices) with an analysis software (“SOFTmaxPRO ver.3.1.2”, product of Molecular Devices), and the RNA concentration was determined from the absorbance. Likewise, absorbance at 280 nm was measured and the purity of the RNA was determined using the analysis software.
(§3) cDNA was synthesized according to the manufacturer's protocol for TaqMan® Reverse Transcription Reagents (Part No. N808-0234, product of Applied Biosystems). More specifically, about 0.5 μg of RNA, 2.5 μL of 10×RT buffer, 5.5 μL of MgCl2 solution, 5 μL of dNTP mixture, 1.25 μL of random hexamer (primers), 0.5 μL of RNase inhibitor, and 0.63 μL of MultiScribe Reverse Transcriptase (product of Applied Biosystems) were added to each collected RNA sample in a tube, and DEPC-treated water was added to make a total volume of 25 μL and stirred. A reaction consisting of 25° C. for 10 minutes, 48° C. for 30 minutes, and 95° C. for 5 minutes was performed using a PCR thermal cycler (“TaKaRa PCR Thermal Cycler Dice”, product of Takara Bio Inc.) to prepare a cDNA solution.
(§4) PCR was performed according to the manufacturer's protocol for TaqMan® Gene Expression Assays (product of Applied Biosystems). More specifically, 5 μL of TaqMan® Fast Universal PCR Master Mix (product of Applied Biosystems), 0.5 μL of TaqMan® Gene Expression Assays for the target gene (gene-specific probe and primer sets, product of Applied Biosystems), and 4.5 μL of the above-obtained cDNA solution were added to each sample and stirred. A PCR reaction consisting of heating at 95° C. for 20 seconds, followed by 40 cycles consisting of heating at 95° C. for 3 seconds and annealing and extension at 60° C. for 30 seconds was performed using a real-time PCR device (“Applied Biosystems 7500 Real-Time PCR System”) with SDS v1.4 Software (product of Applied Biosystems). Threshold cycle (Ct) values were calculated using the software.
(§5) The Assay IDs of the TaqMan® Gene Expression Assays for the target genes used are as follows:
(§6) The expression level of each gene was determined according to the following formula using the level of ACTB as a reference standard.
(§7) (Relative mRNA expression level)=2̂−{(Ct value of the target gene)−(Ct value of ACTB)} […]

[2] = system: COX2; test: Relative COX2 mRNA expression in IL-1β-stimulated MKN-45 cells (real-time PCR); details: IL-1β-stimulated DMSO-treated cells = 100%, ACTB reference
Experimental: as §1, §2, §3, §4, §5, §6, §7

[3] = system: NF-κB; test: NF-kappaB reporter assay (pNF-kappaB-SEAP) in IL-1β-stimulated MKN-45 cells; details: IL-1β 2 ng/mL for 6 hours, DMSO (0.05%) control = 1.00, triplicate
Experimental: pNF-kappaB-SEAP was obtained from Clonetech Laboratories Inc.
Cryopreserved MKN-45 cells (product of JCRB (Japanese Collection of Research Bioresources)) were thawed and cultured in a standard medium in an incubator (37° C., 5% CO2). Every three to five days, the cells were recovered by treatment with Trypsin-EDTA, then adequately diluted and subcultured. MKN-45 cells subcultured two or more times with a survival rate of 95% or more were used in each experiment.
The subcultured MKN-45 cells were harvested using Trypsin-EDTA solution, and the number of viable cells was counted. The cells were suspended in a standard medium to yield a 1.5×10^5 cells/mL suspension. A 24-well plate was seeded with 500 μL/well of the cell suspension, and the cells were cultured in an incubator (37° C., 5% CO2).
The day after seeding, transfection was performed according to the following protocol.
(4.1) Preparation of Plasmid Solution 4 μL of 0.1 μg/μL pNFkappaB-SEAP was placed into each well and diluted with 50 μL of OPTI-MEM I (product of Invitrogen Japan K.K.) by mixing by inversion.
1 μL of Lipofectamine 2000 reagent (product of Invitrogen) was placed into each well and diluted with 50 μL of OPTI-MEM I (product of Life Technologies Inc.) by mixing by inversion. The mixture was allowed to stand at room temperature for 5 to 10 minutes to prepare a Lipofectamine dilution.
The plasmid solution and the Lipofectamine dilution were mixed by inversion and allowed to stand at room temperature for 20 to 30 minutes to prepare a transfection mixture.
The culture medium was removed from the 24-well plate by suction. While care was taken not to dry the subcultured MKN-45 cells, the inner surface of the wells was washed with 1 mL/well of PBS. After the medium was replaced with 500 μL/well of OPTI-MEM I (product of Life Technologies Inc.), 100 μL/well of the transfection mixture was added, and the cells were cultured in a incubator (37° C., 5% CO2). After about 5 hours of incubation, the medium was replaced with a standard medium, and the cells were further cultured in a CO2 incubator (37° C., 5% CO2) until the following day.
On the following morning, the culture medium supernatant was removed by suction and replaced with 1 mL/well of the test compound solution or control solution diluted with a standard medium. The cells were cultured in a CO2 incubator (37° C., 5% CO2) for 1 hour. Each experiment was performed in triplicate.
200 ng/mL IL-1β was added in an amount of 10 μL/well (final concentration: 2 ng/mL), and the cells were cultured in a CO2 incubator (37° C., 5% CO2) for 6 hours.
A reporter assay was performed using Reporter Assay Kit-SEAP (product of Toyobo Co.) according to the manufacturer's protocol.
More specifically, 500 μL of the culture broth was transferred into a tube and centrifuged at 15,000 rpm for 5 minutes at 4° C. The supernatant was transferred into a 96-well white plate. The positive control included in the Reporter Assay Kit-SEAP, and a standard medium as a blank control were each added in an amount of 20 μL/well to the 96-well white plate. Further, an inhibitor for inhibiting the AP activity of the MKN-45 cells was added in an amount of 20 μL/well. After sealing the plate, the contents were mixed well. The plate was placed into a CO2 incubator (37° C., 5% CO2) and allowed to stand for 30 minutes. Subsequently, the plate was allowed to stand on ice for 1 minute, followed by addition of 160 μL/well of Lumi-Phos Plus (a chemiluminescent substrate, product of Lumigen Inc.). The plate was sealed again and placed in a light-shielded state into a CO2 incubator (37° C., 5% CO2). After the plate was allowed to stand for 15 to 30 minutes, luminescence was measured for about 5 to about 10 seconds using a luminometer.
The results of the reporter assay were expressed as Percent Control (or Inhibition), calculated according to the following formulae. The luminescence of each sample was calculated by subtracting the average of blank samples.

[4] = system: IL-8; test: Relative IL-8 mRNA expression in IL-1β-stimulated MKN-45 cells (real-time PCR); details: IL-1β-stimulated DMSO-treated cells = 100%, ACTB reference
Experimental: as §1, §2, §3, §4, §5, §6, §7

| Structure (SMILES) | TNFa relative mRNA expression level, Mean [1] | COX2 relative mRNA expression level, Mean [2] | NF-kappaB reporter (SEAP luminescence) IL-1b(+) mean, relative to control [3] | IL-8 relative mRNA expression level, Mean [4] |
| --- | --- | --- | --- | --- |
| Cc1ccc(CN2C(=O)CCc3c(CC4SC(=S)NC4=O)cccc32)cc1 (centres unmarked) [Test Compound 993] | 46.8% | 27.6% | 0.59 | 45.6% |
| COc1ccc(CC2SC(=S)NC2=O)c2c1N(Cc1ccc3ccccc3c1)C(=O)CC2 (centres unmarked) [Test Compound 971] | 63.4% | 30.8% | 0.56 | 55.9% |
| COc1ccc(CC2SC(=O)NC2=O)c2c1N(Cc1ccc(NC(=O)C3CCCCC3)cc1)C(=O)CC2 (centres unmarked) [Test Compound 225] | 44.6% | 32.9% | 0.49 | 50.0% |
| COc1ccc(CC2SC(=O)NC2=O)c2c1N(CCCC(=O)Nc1ccccc1)C(=O)CC2 (centres unmarked) [Test Compound 608] | 30.8% | 42.4% | 0.71 | 36.5% |
| COc1ccc(CC2SC(=O)NC2=O)c2c1N(CC1CCN(c3ccc(C)cc3)CC1)C(=O)CC2 (centres unmarked) [Test Compound 164] | 30.0% | 21.7% | 0.78 | 24.8% |
| COc1ccc(CC2SC(=S)NC2=O)c2c1N(CC1CC1)C(=O)CC2 (centres unmarked) [Test Compound 980] | 98.0% | 53.8% | 0.63 | 79.4% |
| COc1ccc(CC2SC(=O)NC2=O)c2c1N(Cc1ccc(NC(=O)OCc3ccccc3)cc1)C(=O)CC2 (centres unmarked) [Test Compound 234] | 32.4% | 24.0% | 0.67 | 28.3% |
| COc1ccc(CC2SC(=O)NC2=O)c2c1N(CC(=O)Nc1ccc(C(F)(F)F)cc1)C(=O)CC2 (centres unmarked) [Test Compound 612] | 31.1% | 33.4% | 0.67 | 41.8% |
| COc1ccc(CC2SC(=O)NC2=O)c2c1N(Cc1ccc(NC(=O)Oc3ccc(C)cc3)cc1)C(=O)CC2 (centres unmarked) [Test Compound 233] | 28.9% | 24.9% | 0.85 | 30.4% |
| O=C1NC(=S)SC1Cc1cccc2c1CCC(=O)N2Cc1ccc2ccccc2c1 (centres unmarked) [Test Compound 996] | 41.3% | 31.3% | 0.43 | 50.1% |
| O=C1NC(=O)C(Cc2cccc3c2CCC(=O)N3c2ccccc2)S1 (centres unmarked) [Test Compound 150] | 53.9% | 53.7% | 0.71 | 52.0% |
